Reference: patent publication US10647713B2 (Nimbus Lakshmi, Inc., priority 2016, dated 2020)

These molecules were tested against human TYK2 (JH2domain-pseudokinase) (Homo sapiens (Human), UniProt P29597) (assay: TYK2 JH2 Domain Binding Assay (KINOMEscan, DiscoveRx)). Conditions: 11-point dilution, duplicate.
Description: Binding constants for compounds of the present invention against the JH2 domain were determined by the following protocol for a KINOMEscan® assay (DiscoveRx). A fusion protein of a partial length construct of human TYK2 (JH2domain-pseudokinase) (amino acids G556 to D888 based on reference sequence NP_003322.3) and the DNA binding domain of NFkB was expressed in transiently transfected HEK293 cells. From these HEK 293 cells, extracts were prepared in M-PER extraction buffer (Pierce) in the presence of Protease Inhibitor Cocktail Complete (Roche) and Phosphatase Inhibitor Cocktail Set II (Merck) per manufacturers' instructions. The TYK2 (JH2domain-pseudokinase) fusion protein was labeled with a chimeric double-stranded DNA tag containing the NFkB binding site (5′-GGGAATTCCC-3′) fused to an amplicon for qPCR readout, which was added directly to the expression extract (the final concentration of DNA-tag in the binding reaction is 0.1 nM).
Streptavidin-coated magnetic beads (Dynal M280) were treated with a biotinylated small molecule ligand for 30 minutes at room temperature to generate affinity resins the binding assays. The liganded beads were blocked with excess biotin and washed with blocking buffer (SeaBlock (Pierce), 1% BSA, 0.05% Tween 20, 1 mM DTT) to remove unbound ligand and to reduce nonspecific binding.
The binding reaction was assembled by combining 16 μl of DNA-tagged kinase extract, 3.8 μl liganded affinity beads, and 0.18 μl test compound (PBS/0.05% Tween 20/10 mM DTT/0.1% BSA/2 μg/ml sonicated salmon sperm DNA)]. Extracts were used directly in binding assays without any enzyme purification steps at a ≥10,000-fold overall stock dilution (final DNA-tagged enzyme concentration <0.1 nM). Extracts were loaded with DNA-tag and diluted into the binding reaction in a two step process. First extracts were diluted 1:100 in 1× binding buffer (PBS/0.05% Tween 20/10 mM DTT/0.1% BSA/2 μg/ml sonicated salmon sperm DNA) containing 10 nM DNA-tag. This dilution was allowed to equilibrate at room temperature for 15 minutes and then subsequently diluted 1:100 in 1× binding buffer. Test compounds were prepared as 111× stocks in 100% DMSO. Kds were determined using an 11-point 3-fold compound dilution series with three DMSO control points. All compounds for Kd measurements are distributed by acoustic transfer (non-contact dispensing) in 100% DMSO. The compounds were then diluted directly into the assays such that the final concentration of DMSO was 0.9%. All reactions performed in polypropylene 384-well plates. Each was a final volume of 0.02 mL. Assays were incubated with shaking for 1 hour at room temperature. Then the beads were pelleted and washed with wash buffer (1×PBS, 0.05% Tween 20) to remove displaced kinase and test compound. The washed based were re-suspended in elution buffer (1×PBS, 0.05% Tween 20, 0.5 μM non-biotinylated affinity ligand) and incubated at room temperature with shaking for 30 minutes. The kinase concentration in the eluates was measured by qPCR. qPCR reactions were assembled by adding 2.5 μL of kinase eluate to 7.5 μL of qPCR master mix containing 0.15 μM amplicon primers and 0.15 μM amplicon probe. The qPCR protocol consisted of a 10 minute hot start at 95° C., followed by 35 cycles of 95° C. for 15 seconds, 60° C. for 1 minute.
Test compounds were prepared as 111× stocks in 100% DMSO. Kds were determined using an 11-point 3-fold compound dilution series with three DMSO control points. All compounds for Kd measurements are distributed by acoustic transfer (non-contact dispensing) in 100% DMSO. The compounds were then diluted directly into the assays such that the final concentration of DMSO was 0.9%. The Kds were determined using a compound top concentration of 30,000 nM. Kd measurements were performed in duplicate.
Binding constants (Kds) were calculated with a standard dose-response curve using the Hill equation: […]
The Hill Slope was set to −1. […]

human TYK2 (JH2domain-pseudokinase), sequence (P29597 556-888): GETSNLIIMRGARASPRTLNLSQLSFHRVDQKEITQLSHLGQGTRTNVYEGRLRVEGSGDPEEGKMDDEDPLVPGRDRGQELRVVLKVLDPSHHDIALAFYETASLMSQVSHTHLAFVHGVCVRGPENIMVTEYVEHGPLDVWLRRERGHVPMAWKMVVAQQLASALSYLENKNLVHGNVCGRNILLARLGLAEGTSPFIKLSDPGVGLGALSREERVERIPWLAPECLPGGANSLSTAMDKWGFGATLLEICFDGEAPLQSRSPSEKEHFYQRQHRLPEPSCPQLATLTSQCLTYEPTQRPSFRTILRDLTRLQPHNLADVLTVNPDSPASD

Compound	Kd [nM]
COc1c(Nc2cc(Nc3ccc(C)nn3)nc3[nH]c(C)nc23)cccc1-c1nnn(C)n1 [I-100, N-7-(2-methoxy-3-(2-methyl-2H-tetrazol-5-yl)phenyl)-2-methyl-N5-(6-methylpyridazin-3-yl)-3H-imidazo[4,5-b]pyridine-5,7-diamine]	0.1 to 0.5
Cc1c(-c2ccc(Nc3cc(Nc4cccc(C(F)(F)F)n4)nc4[nH]c(C(F)F)nc34)c(S(C)(=O)=O)c2)cnn1C [I-493, 2-(difluoromethyl)-N7-(4-(1,5-dimethyl-1H-pyrazol-4-yl)-2-(methylsulfonyl)phenyl)-N5-(6-(trifluoromethyl)pyridin-2-yl)-3H-imidazo[4,5-b]pyridine-5,7-diamine]	0.1 to 0.5
COc1c(Nc2cc(NC(=O)C3CC3)nc3[nH]c(C)nc23)cccc1-c1nnn(C)c1C [I-158, N-(7-((3-(1,5-dimethyl-1H-1,2,3-triazol-4-yl)-2-methoxyphenyl)amino)-2-methyl-3H-imidazo[4,5-b]pyridin-5-yl)cyclopropanecarboxamide]	> 10
Cc1cc(Nc2cc(Nc3ccccc3N(C)S(C)(=O)=O)c3nc(C(F)F)[nH]c3n2)nc(C)n1 [I-45, N-(2-((2-(difluoromethyl)-5-((2,6-dimethylpyrimidin-4-yl)amino)-3H-imidazo[4,5-b]pyridin-7-yl)amino)phenyl)-N-methylmethanesulfonamide]	0.1 to 0.5
COc1c(Nc2cc(NC(=O)C3CC3)nc3[nH]c(C)nc23)cccc1C(=O)O [I-141, 3-((5-(cyclopropanecarboxamido)-2-methyl-3H-imidazo[4,5-b]pyridin-7-yl)amino)-2-methoxybenzoic acid]	> 10
Cc1nc2c(Nc3ccc(C4=NCC(C)(C)O4)cc3S(C)(=O)=O)cc(NC(=O)C3CC3)nc2[nH]1 [I-284, N-(7-((4-(5,5-dimethyl-4,5-dihydrooxazol-2-yl)-2-(methylsulfonyl)phenyl)amino)-2-methyl-3H-imidazo[4,5-b]pyridin-5-yl)cyclopropanecarboxamide]	0.5 to 1
Cc1nc2c(Nc3ccc(-c4cnn(C)c4C)cc3S(C)(=O)=O)cc(Nc3cc4n(n3)CCOC4)nc2[nH]1 [I-492, N5-(6,7-dihydro-4H-pyrazolo[5,1-c][1,4]oxazin-2-yl)-N7-(4-(1,5-dimethyl-1H-pyrazol-4-yl)-(methylsulfonyl)phenyl)-2-methyl-3H-imidazo[4,5-b]pyridine-5,7-diamine]	< 0.1
CS(=O)(=O)N(c1ccccc1Nc1cc(Nc2cccc(C#N)n2)nc2[nH]c(C(F)F)nc12)C(F)F [I-229, N-(2-((5-((6-cyanopyridin-2-yl)amino)-2-(difluoromethyl)-3H-imidazo[4,5-b]pyridin-7-yl)amino)phenyl)-N-(difluoromethyl)methanesulfonamide]	1 to 10
Cc1nc2c(Nc3ccc(-c4c(C)nn(C)c4C)cc3S(C)(=O)=O)cc(Nc3cnc(C)c(C)n3)nc2[nH]1 [I-342]	0.1 to 0.5
Cc1cc(Nc2cc(Nc3ccc(-c4nc(C)c(C)s4)cc3S(C)(=O)=O)c3nc(C(F)F)[nH]c3n2)nc(C)n1 [I-469, 2-(difluoromethyl)-N5-(2,6-dimethylpyrimidin-4-yl)-N7-(4-(4,5-dimethylthiazol-2-yl)-2-(methylsulfonyl)phenyl)-3H-imidazo[4,5-b]pyridine-5,7-diamine]	0.5 to 1
COc1c(C#N)cccc1Nc1cc(NC(=O)C2CC2)nc2[nH]c(C)nc12 [I-105, N-(7-((3-cyano-2-methoxyphenyl)amino)-2-methyl-3H-imidazo[4,5-b]pyridin-5-yl)cyclopropanecarboxamide]	> 10
Cc1nc2c(Nc3ccc(Cl)cc3S(C)(=O)=O)cc(Nc3cccc(C#N)n3)nc2[nH]1 [I-186, 6-((7-((4-chloro-2-(methylsulfonyl)phenyl)amino)-2-methyl-3H-imidazo[4,5-b]pyridin-5-yl)amino)picolinonitrile]	0.1 to 0.5

Now from value to molecule:

Kd [nM]	Compound
1 to 10	CS(=O)(=O)c1cc(C2CCOCC2)ccc1Nc1cc(NC(=O)[C@H]2CC2(F)F)nc2[nH]c(C(F)F)nc12 [I-294, (R)—N-(2-(difluoromethyl)-7-((2-(methylsulfonyl)-4-(tetrahydro-2H-pyran-4-yl)phenyl)amino)-3H-imidazo[4,5-b]pyridin-5-yl)-2,2-difluorocyclopropane-1-carboxamide]
0.1 to 0.5	Cn1cncc1-c1ccc(Nc2cc(NC(=O)C3CC3(F)F)nc3[nH]c(C(F)F)nc23)c(S(C)(=O)=O)c1 (stereo not shown) [I-379, N-(2-(difluoromethyl)-7-((4-(1-methyl-1H-imidazol-5-yl)-2-(methylsulfonyl)phenyl)amino)-3H-imidazo[4,5-b]pyridin-5-yl)-2,2-difluorocyclopropane-1-carboxamide]
0.1 to 0.5	Cc1nc2c(Nc3ccc(-c4cc(C)c(C)o4)cc3S(C)(=O)=O)cc(NC(=O)C3CC3)nc2[nH]1 [I-421, N-(7-((4-(4,5-dimethylfuran-2-yl)-2-(methylsulfonyl)phenyl)amino)-2-methyl-3H-imidazo[4,5-b]pyridin-5-yl)cyclopropanecarboxamide]
1 to 10	CN(c1cc(-c2cnn(C)c2)ccc1Nc1cc(NC(=O)[C@H]2CC2(F)F)nc2[nH]c(C(F)F)nc12)S(C)(=O)=O [I-231, (R)—N-(2-(difluoromethyl)-7-((4-(1-methyl-1H-pyrazol-4-yl)-2-(N-methylmethylsulfonamido)phenyl)amino)-3H-imidazo[4,5-b]pyridin-5-yl)-2,2-difluorocyclopropane-1-carboxamide]
0.1 to 0.5	COc1c(Nc2cc(NC(=O)C3CC3)nc3[nH]c(C(F)F)nc23)cccc1-c1ncn(C)n1 [I-13, N-(2-(difluoromethyl)-7-((2-methoxy-3-(1-methyl-1H-1,2,4-triazol-3-yl)phenyl)amino)-3H-imidazo[4,5-b]pyridin-5-yl)cyclopropanecarboxamide]
0.1 to 0.5	CS(=O)(=O)c1cc(C2CCCOC2)ccc1Nc1cc(NC(=O)C2CC2)nc2[nH]c(C(F)F)nc12 (stereo not shown) [I-391, N-(2-(difluoromethyl)-7-((2-(methylsulfonyl)-4-(tetrahydro-2H-pyran-3-yl)phenyl)amino)-3H-imidazo[4,5-b]pyridin-5-yl)cyclopropanecarboxamide]
1 to 10	Cc1ccc(-c2ccc(Nc3cc(NC(=O)C4CC4)nc4[nH]c(C(F)F)nc34)c(S(C)(=O)=O)c2)o1 [I-418, N-(2-(difluoromethyl)-7-((4-(5-methylfuran-2-yl)-2-(methylsulfonyl)phenyl)amino)-3H-imidazo[4,5-b]pyridin-5-yl)cyclopropanecarboxamide]
1 to 10	CS(=O)(=O)c1cc([C@H]2CCCOC2)ccc1Nc1cc(NC(=O)C2CC2)nc2[nH]c(C(F)F)nc12 [I-252, (R)—N-(2-(difluoromethyl)-7-((2-(methylsulfonyl)-4-(tetrahydro-2H-pyran-3-yl)phenyl)amino)-3H-imidazo[4,5-b]pyridin-5-yl)cyclopropanecarboxamide]
1 to 10	CN(c1cc(-c2cncn2C)ccc1Nc1cc(NC(=O)[C@H]2CC2(F)F)nc2[nH]c(C(F)F)nc12)S(C)(=O)=O [I-271, (R)—N-(2-(difluoromethyl)-7-((4-(1-methyl-1H-imidazol-5-yl)-2-(N-methylmethylsulfonamido)phenyl)amino)-3H-imidazo[4,5-b]pyridin-5-yl)-2,2-difluorocyclopropane-1-carboxamide]
0.1 to 0.5	Cc1c(-c2ccc(Nc3cc(NC(=O)[C@@H]4CC4(F)F)nc4[nH]c(C(F)F)nc34)c(S(C)(=O)=O)c2)cnn1C [I-308, (S)—N-(2-(difluoromethyl)-7-((4-(1,5-dimethyl-1H-pyrazol-4-yl)-2-(methylsulfonyl)phenyl)amino)-3H-imidazo[4,5-b]pyridin-5-yl)-2,2-difluorocyclopropane-1-carboxamide]
